# Measurements: ChEMBL document CHEMBL1201862, “PubChem BioAssay data set” (2004)
#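 Interpolation was linear, between the two tested concentrations surrounding the appropriate level; five concentrations were tested over 48 hours in 96-well plates. Abbreviation: GI50, concentration required for 50% inhibition of growth.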 Activity calls are given as the source filed them. Rule as the data show it: active = GI50 up to about 1.1 µM and inactive = higher.
# Tests used:
# Assay in all cases: inhibition of tumour cell growth, NCI panel, 48 h
# ACHN = tested on: ACHN
# BT-549 = tested on: BT-549
# CAKI-1 = tested on: CAKI-1
# COLO 205 = tested on: COLO 205
# HCT-116 = tested on: HCT-116
# HT-29 = tested on: HT-29
# Hs-578T = tested on: Hs-578T
# M14 = tested on: M14
# Malme-3M = tested on: Malme-3M
# NCI-H522 = tested on: NCI-H522
# NCI/ADR-RES = tested on: NCI/ADR-RES
# OVCAR-3 = tested on: OVCAR-3
# OVCAR-4 = tested on: OVCAR-4
# OVCAR-5 = tested on: OVCAR-5
# RPMI-8226 = tested on: RPMI-8226
# SF-539 = tested on: SF-539
# SK-MEL-2 = tested on: SK-MEL-2
# SNB-19 = tested on: SNB-19
# T47D = tested on: T47D
# UO-31 = tested on: UO-31
Compound,GI50 (ACHN),GI50 (BT-549),GI50 (CAKI-1),GI50 (COLO 205),GI50 (HCT-116),GI50 (HT-29),GI50 (Hs-578T),GI50 (M14),GI50 (Malme-3M),GI50 (NCI-H522),GI50 (NCI/ADR-RES),GI50 (OVCAR-3),GI50 (OVCAR-4),GI50 (OVCAR-5),GI50 (RPMI-8226),GI50 (SF-539),GI50 (SK-MEL-2),GI50 (SNB-19),GI50 (T47D),GI50 (UO-31)
CCOC(=O)NC1=C(N2CC2)C(=O)C(NC(=O)OCC)=C(N2CC2)C1=O [DIAZIQUONE],0.82 µM (active),11.4 µM (inactive),1.08 µM (active),7.69 µM (inactive),3.53 µM (inactive),7.73 µM (inactive),13.2 µM (inactive),2.62 µM (inactive),6.49 µM (inactive),3.14 µM (inactive),3.48 µM (inactive),4.75 µM (inactive),4.9 µM (inactive),7.85 µM (inactive),3.99 µM (inactive),1.75 µM (inactive),5.96 µM (inactive),4.11 µM (inactive),6.21 µM (inactive),5.56 µM (inactive)
O=C(NCCN1CCCCC1)c1ccc(I)cc1,> 100 µM (inactive),> 100 µM (inactive),> 100 µM (inactive),94.6 µM (inactive),> 100 µM (inactive),39.5 µM (inactive),61 µM (inactive),> 100 µM (inactive),> 100 µM (inactive),> 100 µM (inactive),> 100 µM (inactive),> 100 µM (inactive),> 100 µM (inactive),> 100 µM (inactive),> 100 µM (inactive),> 100 µM (inactive),> 100 µM (inactive),> 100 µM (inactive),> 100 µM (inactive),> 100 µM (inactive)
Cc1ccc2nc3[nH]nc(N)c3nc2c1,99.3 µM (inactive),67 µM (inactive),42.6 µM (inactive),> 100 µM (inactive),> 100 µM (inactive),> 100 µM (inactive),89.3 µM (inactive),> 100 µM (inactive),> 100 µM (inactive),> 100 µM (inactive),> 100 µM (inactive),> 100 µM (inactive),> 100 µM (inactive),> 100 µM (inactive),72.6 µM (inactive),> 100 µM (inactive),> 100 µM (inactive),> 100 µM (inactive),65.3 µM (inactive),52 µM (inactive)
COc1cc2c(cc1OCCN1C(=O)c3cccc4cccc(c34)C1=O)N=C[C@@H]1CCCN1C2=O,8.07 µM (inactive),9.82 µM (inactive),7.5 µM (inactive),8.32 µM (inactive),7.66 µM (inactive),9.46 µM (inactive),7.8 µM (inactive),8.34 µM (inactive),8.02 µM (inactive),1.17 µM (inactive),15.8 µM (inactive),6.68 µM (inactive),16 µM (inactive),10.9 µM (inactive),9.27 µM (inactive),9.12 µM (inactive),7.29 µM (inactive),12.4 µM (inactive),9.35 µM (inactive),8.87 µM (inactive)
O=C(CC(Cc1ccccc1)c1ccc(Oc2ccccc2)cc1)Nc1cccc(Cl)c1 (stereo not given),3.65 µM (inactive),7.67 µM (inactive),3.66 µM (inactive),6 µM (inactive),3.6 µM (inactive),5.79 µM (inactive),7.85 µM (inactive),4.88 µM (inactive),15 µM (inactive),3.1 µM (inactive),3.62 µM (inactive),3.86 µM (inactive),6.03 µM (inactive),28.6 µM (inactive),3.72 µM (inactive),26.1 µM (inactive),3.56 µM (inactive),4.5 µM (inactive),2.92 µM (inactive),4.24 µM (inactive)
